Series [1] in a line: Toxic and maximum doses of local anesthetics (state of the art). The source says: The Articaine hydrochloride always belongs to the group of the short-acting local anesthetics.
For series [2] the following is noted: cited from earlier work; for toxic dose: long-acting anesthetics.
Setting [3] is: combined with a vasoconstrictor such as adrenaline.

Structures can show the parent of a compound that is named as a salt.

These results are taken from patent publication US11786515B2, “Anesthetic mixtures formulations for local anesthesia, at very low concentration, to be used cold with suitable packaging” (L. MOLTENI & C. DEI FRATELLI ALITTI-SOCIETA′ DI ESERCIZIO …, priority 2018, dated 2023).

Take `CCN(CC)CC(=O)Nc1c(C)cccc1C` [Lidocaine, Lidocaine hydrochloride]: in series [1] (human, in vivo), the maximum volume was found to be 15 mL. In series [2] (setting [3]), the maximum dosage is 7 mg/kg and the maximum dose is on record as 500 mg.
Regarding `CCCCN1CCCCC1C(=O)Nc1c(C)cccc1C` (centres unmarked) [Bupivacaine hydrochloride], in series [1] (5 mg/ml solution (0.5%)), the maximum volume was 30 mL. Besides, the toxic dose in series [2] is listed as 2 mg/kg body.
`CCCCN1CCCC[C@H]1C(=O)Nc1c(C)cccc1C` [Levobupivacaine hydrochloride] returned a maximum volume in series [1] (5 mg/ml solution (0.5%)) of 30 mL. The toxic dose in series [2] is 2 mg/kg body.
Regarding `CCCNC(C)C(=O)Nc1c(C)csc1C(=O)OC` (centres unmarked) [Articaine hydrochloride], the “toxic dose / tolerance compared with other short-acting anesthetics” value in series [2] (in vivo) was “overlapping to that of the lidocaine and mepivacaine”.
